Source: PubChem BioAssay (NCI)
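Step 1: Grow cells in 96-well plates. Step 2: Expose to compound for 48 hours at 5 concentrations. Step 3: Interpolate endpoints linearly; if unreached, use highest concentration. The concentration for 50% growth inhibition is given as GI50. Definition used: TGI = concentration required for complete inhibition of growth.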

Assays:
Experiment in all cases: NCI anticancer screen, dose series, 48 h
[1] = tested on: HOP-62 NSCLC
[2] = tested on: EKVX NSCLC
[3] = tested on: MALME-3M melanoma
[4] = tested on: DU-145 prostate
[5] = tested on: CCRF-CEM leukemia
[6] = tested on: NCI-H460 lung
[7] = tested on: M14 melanoma
[8] = tested on: HOP-92 NSCLC
[9] = tested on: BT-549 breast
[10] = tested on: ACHN renal
[11] = tested on: SN12C renal
[12] = tested on: K-562 leukemia
[13] = tested on: TK-10 renal
[14] = tested on: IGROV1 ovarian
[15] = tested on: OVCAR-8 ovarian
[16] = tested on: UACC-257 melanoma
[17] = tested on: A549 NSCLC
[18] = tested on: SW-620 colon
[19] = tested on: HCT-116 colon
[20] = tested on: SK-MEL-28 melanoma
[21] = tested on: U251 CNS
[22] = tested on: 786-0 renal
[23] = tested on: OVCAR-4 ovarian
[24] = tested on: MDA-MB-468 breast
[25] = tested on: HCT-15 colon
[26] = tested on: NCI-H23 lung
[27] = tested on: SK-MEL-5 melanoma
[28] = tested on: RXF 393 renal
[29] = tested on: SR leukemia
[30] = tested on: MDA-MB-231 breast
[31] = tested on: RPMI-8226 leukemia
[32] = tested on: SF-539 CNS
[33] = tested on: SF-295 CNS
[34] = tested on: NCI-H522 lung
[35] = tested on: KM12 colon
[36] = tested on: MCF7 breast
[37] = tested on: COLO 205 colon
[38] = tested on: PC-3 prostate
[39] = tested on: UACC-62 melanoma
[40] = tested on: MDA-MB-435
[41] = tested on: HT29 colon
[42] = tested on: SK-MEL-2 melanoma
[43] = tested on: SK-OV-3 ovarian
[44] = tested on: UO-31 renal
[45] = tested on: A498 renal
[46] = tested on: SNB-19 CNS
[47] = tested on: NCI-H226 lung
[48] = tested on: T-47D breast
[49] = tested on: OVCAR-3 ovarian
[50] = tested on: SF-268 CNS
[51] = tested on: HCC-2998 colon
[52] = tested on: CAKI-1 renal
[53] = tested on: OVCAR-5 ovarian
[54] = tested on: HS 578T breast

SMILES: COc1cc(/C=C/C(=O)c2cnn(-c3cc(=O)[nH]c4ccc(Cl)cc34)c2C)cc(OC)c1OC
- GI50 [1]: 3.57 µM
- TGI [1]: 25.8 µM
- GI50 [2]: 2.96 µM
- TGI [2]: 14.1 µM
- GI50 [3]: 5.1 µM
- TGI [3]: 27.2 µM
- GI50 [4]: 3.3 µM
- TGI [4]: > 100 µM
- GI50 [5]: 2.42 µM
- TGI [5]: > 100 µM
- GI50 [6]: 1.88 µM
- TGI [6]: 4.32 µM
- GI50 [7]: 3.2 µM
- TGI [7]: 19.8 µM
- GI50 [8]: 7.31 µM
- TGI [8]: 99.8 µM
- GI50 [9]: 2.76 µM
- TGI [9]: 9.98 µM
- GI50 [10]: 1.76 µM
- TGI [10]: 3.68 µM
- GI50 [11]: 2.64 µM
- TGI [11]: 9.24 µM
- GI50 [12]: 2.68 µM
- TGI [12]: > 100 µM
- GI50 [13]: 3.26 µM
- TGI [13]: > 100 µM
- GI50 [14]: 2.54 µM
- TGI [14]: 7.18 µM
- GI50 [15]: 2.06 µM
- TGI [15]: 4.95 µM
- GI50 [16]: 7.19 µM
- TGI [16]: 64.4 µM
- GI50 [17]: 3.09 µM
- TGI [17]: > 100 µM
- GI50 [18]: 2.97 µM
- TGI [18]: 11.5 µM
- GI50 [19]: 3.58 µM
- TGI [19]: 17.5 µM
- GI50 [20]: 3.36 µM
- TGI [20]: 13.3 µM
- GI50 [21]: 2.83 µM
- TGI [21]: > 100 µM
- GI50 [22]: 4.09 µM
- TGI [22]: 21.1 µM
- GI50 [23]: 3.58 µM
- TGI [23]: > 100 µM
- GI50 [24]: 1.8 µM
- TGI [24]: 4.41 µM
- GI50 [25]: 1.93 µM
- TGI [25]: 5.01 µM
- GI50 [26]: 2.21 µM
- TGI [26]: 5.9 µM
- GI50 [27]: 3.22 µM
- TGI [27]: 12 µM
- GI50 [28]: 2.08 µM
- TGI [28]: 4.95 µM
- GI50 [29]: 2.02 µM
- TGI [29]: > 100 µM
- GI50 [30]: 3.3 µM
- TGI [30]: 14.9 µM
- GI50 [31]: 2.42 µM
- TGI [31]: > 100 µM
- GI50 [32]: 2.08 µM
- TGI [32]: 4.62 µM
- GI50 [33]: 3.16 µM
- TGI [33]: 11.5 µM
- GI50 [34]: 2.66 µM
- TGI [34]: 8.38 µM
- GI50 [35]: 3.37 µM
- TGI [35]: 15 µM
- GI50 [36]: 2.48 µM
- TGI [36]: 10.2 µM
- GI50 [37]: 3.53 µM
- TGI [37]: 14 µM
- GI50 [38]: 6.28 µM
- TGI [38]: > 100 µM
- GI50 [39]: 3.36 µM
- TGI [39]: 15 µM
- GI50 [40]: 2.6 µM
- TGI [40]: 8.12 µM
- GI50 [41]: 2.5 µM
- TGI [41]: 6.58 µM
- GI50 [42]: 2.98 µM
- TGI [42]: 11.8 µM
- GI50 [43]: 4.68 µM
- TGI [43]: > 100 µM
- GI50 [44]: 3.26 µM
- TGI [44]: 14.5 µM
- GI50 [45]: 34.2 µM
- TGI [45]: 87.4 µM
- GI50 [46]: 3.36 µM
- TGI [46]: 14.4 µM
- GI50 [47]: 2.89 µM
- TGI [47]: 9.13 µM
- GI50 [48]: 3.08 µM
- TGI [48]: > 100 µM
- GI50 [49]: 3.06 µM
- TGI [49]: 9.9 µM
- GI50 [50]: 3.42 µM
- TGI [50]: > 100 µM
- GI50 [51]: 2.78 µM
- TGI [51]: 8.21 µM
- GI50 [52]: 4.17 µM
- TGI [52]: 22.5 µM
- GI50 [53]: 3.32 µM
- TGI [53]: 13.4 µM
- GI50 [54]: 3.31 µM
- TGI [54]: > 100 µM
